Source: patent publication US9211278B2, “Composition containing arylnaphthalene lignan derivative for preventing and/or treating dementia” (KOREA INSTITUTE OF SCIENCE AND TECHNOLOGY, priority 2012, dated 2015)

Tested on: male ICR mouse
Experiment: Novel object recognition test, scopolamine-impaired memory model
Format: in vivo
Conditions: oral, 10 mg/kg and 20 mg/kg; compared with 2 mg/kg Donepezil
Experimental: The male ICR mouse was 5 to 6-week age (25˜30 g of body weight) (Orientbio Inc., Seougnam, Republic of Korea), and was raised with solid feed and tap water for 1 week before being used for test. For 3 days before the test, each mouse to get adjusted to Arena (grey mat acryl material, 50 cm×50 cm×60 cm) went freely into the Arena for 10 minutes per a day.
At a first day, the normal control group and the group administered by the scopolamine were fed with 5% (v/v) DMSO-saline, the test group was orally administered by 1, 5, 10 and 20 mg/kg/10 ml of Justicidin A (C1) in 5% DMSO-Saline, and the comparative group was administered with 2 mg/kg/10 ml of Donepezil (brand name: Aricept, Eisai) being commercially available as a drug for treating an dementia of the Alzheimer's type. After 30 minutes, the groups were intraperitoneally injected by scopolamine (Sigma-Aldrich Chemical Co., St Louis, USA) at 1 mg/kg/10 ml. […]
At the second day, the mice were dropped into the Arena without treatment of additional drug and scopolamine. […] Entire test was automatically recorded and analyzed with Noldus Ethovision 7.0 program (Noldus Information Technology, USA). The time when the mice sought the object in 3 minutes after dropping two objects at second day of test were measured and calculated as Memory Index (%, ratio of time for Novel object recognition to entire time for recognition). […]

SMILES: COc1cc2c(OC)c3c(c(-c4ccc5c(c4)OCO5)c2cc1OC)C(=O)OC3 [Justicidin A]
- memory and learning ability (Memory Index): showed high memory and learning ability
